In patent publication US10065990B2, “Cyclic peptide compound, and preparation method, pharmaceutical composition and use thereof” (HANGZHOU GUANYU BIO-MEDICAL CO., LTD, priority 2013, dated 2018):
Like-named read-outs stand apart in the source and are kept apart here.

Columns and labels:
HDAC7 = molecular target: T1, HDAC7 (Homo sapiens, UniProt Q8WUI4); experiment: HDAC biochemical activity measurement (fluorescent substrate deacetylation);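 note: fluorogenic deacetylation assay using acetyl-lysine substrate at 20 µM, enzyme and compound incubated 30 min at 37 °C, then developer added, fluorescence read at 360/460 nm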; conditions: HDAC7; 37° C. 30 minutes
T1 sequence (Q8WUI4 1-952): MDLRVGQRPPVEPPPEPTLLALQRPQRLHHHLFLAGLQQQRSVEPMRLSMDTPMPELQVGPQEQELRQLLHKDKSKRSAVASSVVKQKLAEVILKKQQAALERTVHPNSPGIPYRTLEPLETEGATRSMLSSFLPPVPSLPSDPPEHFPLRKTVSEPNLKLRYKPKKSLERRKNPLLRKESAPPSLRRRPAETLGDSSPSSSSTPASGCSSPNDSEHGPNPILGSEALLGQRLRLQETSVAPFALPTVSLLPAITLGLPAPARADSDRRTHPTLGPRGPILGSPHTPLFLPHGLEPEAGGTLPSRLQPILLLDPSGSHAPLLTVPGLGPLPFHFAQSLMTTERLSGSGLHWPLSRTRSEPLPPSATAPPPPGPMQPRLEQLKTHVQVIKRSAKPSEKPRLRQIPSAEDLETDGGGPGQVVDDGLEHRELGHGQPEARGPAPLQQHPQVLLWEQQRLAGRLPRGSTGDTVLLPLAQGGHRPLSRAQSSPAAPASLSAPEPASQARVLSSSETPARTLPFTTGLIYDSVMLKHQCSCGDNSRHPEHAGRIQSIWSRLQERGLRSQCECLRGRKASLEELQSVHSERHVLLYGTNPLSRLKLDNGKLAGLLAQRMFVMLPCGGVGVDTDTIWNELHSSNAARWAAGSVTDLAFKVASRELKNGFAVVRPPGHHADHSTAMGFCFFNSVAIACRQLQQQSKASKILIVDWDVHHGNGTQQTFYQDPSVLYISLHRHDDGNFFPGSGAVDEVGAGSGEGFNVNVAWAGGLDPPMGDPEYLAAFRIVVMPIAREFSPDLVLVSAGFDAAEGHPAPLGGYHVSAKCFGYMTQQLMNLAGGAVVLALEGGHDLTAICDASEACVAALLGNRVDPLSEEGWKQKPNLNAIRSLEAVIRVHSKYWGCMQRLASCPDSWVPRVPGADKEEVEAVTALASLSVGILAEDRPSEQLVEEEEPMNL
Protocol: The chemical activity of the compound is determined according to the degree of deacetylation inhibition of the HDAC enzyme. This experiment measured the degree of deacetylation related to tumor proliferation and metastasis of HDAC1, HDAC2, HDAC3, HDAC8, HDAC11 five subtypes HDAC enzymes. After the substrate containing an acetylated lysine side chain and HDAC enzyme are labeled with a fluorescent label, the fluorescent substrate is de acetyl. The fluorescent labeled substrate is cleaved by the enzyme, and the fluorescent substance is released, which generates 460 nm emission light under the excitation of 360 nm light.
HDAC substrate was diluted with reaction buffer to 200M (reaction concentration of 20M), the HDAC enzyme was diluted to the appropriate concentration, then added different concentrations of the test compounds and acted at 37° C. 30 minutes, and then added the same volume of 2-times concentration substrate developing solution (developer), incubated at room temperature for 15 minutes. Finally, the last reading measured with a microplate plate reader, excitation light was 360 nm, the emitted light was 460 nm, data processing software was Prime 4, and the results are shown in Table 1.

[1] = tested on: A549 (human lung cancer cells); experiment: MTT cancer cell growth inhibition; assay type: cell-based; conditions: Homo sapiens, A549, 72 h, MTT, 72 hours incubation, read-out: GI50 A54
Procedure, shortened: (§1)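 Cells grown in DMEM or RPMI 1640 with 10% FBS were seeded at 1500/well and left overnight at 37° C., 5% CO2. Compounds at final 10^−5 to 10^−10 M were added in triplicate for 72 h. MTT was then added for 4 h, formazan dissolved in DMSO, and absorbance read at 570 nm to derive GI50.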

[2] = tested on: BGC-823 (human gastric cancer cells); experiment: MTT cancer cell growth inhibition; assay type: cell-based; conditions: Homo sapiens, BGC-823, 72 h, MTT, 72 hours incubation, read-out: GI50 BG
Procedure, shortened: as §1

[3] = tested on: Bel-7402 (human hepatoma cells); experiment: MTT cancer cell growth inhibition; assay type: cell-based; conditions: Homo sapiens, Bel-7402, 72 h, MTT, 72 hours incubation, Bel-7402 cells; read-out: GI50 Bel-7402
Procedure, shortened: as §1

[4] = tested on: DU145 (human prostate cancer cells); experiment: MTT cancer cell growth inhibition; assay type: cell-based; conditions: Homo sapiens, DU-145, 72 h, MTT, 72 hours incubation, read-out: GI50 Du1
Procedure, shortened: as §1

[5] = tested on: H1975 (non-small cell lung adenocarcinoma); experiment: MTT cancer cell growth inhibition; assay type: cell-based; conditions: Homo sapiens, NCI-H1975, 72 h, MTT, 72 hours incubation, H1975 cells; read-out: GI50 H1975
Procedure, shortened: as §1

[6] = tested on: HCC827 (human non-small cell lung cancer cells); experiment: MTT cancer cell growth inhibition; assay type: cell-based; conditions: Homo sapiens, HCC827, 72 h, MTT, 72 hours incubation, HCC827 cells; read-out: GI50 HCC827
Procedure, shortened: as §1

[7] = tested on: HT1080 (human fibrosarcoma cells); experiment: MTT cancer cell growth inhibition; assay type: cell-based; conditions: Homo sapiens, HT-1080, 72 h, MTT, 72 hours incubation, read-out: GI50 HT1
Procedure, shortened: as §1

[8] = tested on: Hela (human cervical cancer cells); experiment: MTT cancer cell growth inhibition; assay type: cell-based; conditions: Homo sapiens, HeLa, 72 h, MTT, 72 hours incubation, read-out: GI50 Hela
Procedure, shortened: as §1

[9] = tested on: Huh-7 (human hepatoma cells); experiment: MTT cancer cell growth inhibition; assay type: cell-based; conditions: Homo sapiens, Huh-7, 72 h, MTT, 72 hours incubation, Huh-7 cells; read-out: GI50 Huh-7
Procedure, shortened: as §1

[10] = tested on: K562 (human leukemia cells); experiment: MTT cancer cell growth inhibition; assay type: cell-based; conditions: Homo sapiens, K562, 72 h, MTT, 72 hours incubation, K562 cells; read-out: GI50 K562
Procedure, shortened: as §1

[11] = tested on: KBM-5 (human chronic myelogenous leukemia); experiment: MTT cancer cell growth inhibition; assay type: cell-based; conditions: Homo sapiens, KBM5, 72 h, MTT, 72 hours incubation, KBM-5 cells; read-out: GI50 KBM-5
Procedure, shortened: as §1

[12] = tested on: KBM5-T315I (human chronic myelogenous leukemia); experiment: MTT cancer cell growth inhibition; assay type: cell-based; conditions: Homo sapiens, 72 h, MTT, 72 hours incubation, KBM5-T315I cells; read-out: GI50 KBM5-T315I
Procedure, shortened: as §1

[13] = tested on: MCF-7 (human breast cancer cells); experiment: MTT cancer cell growth inhibition; assay type: cell-based; conditions: Homo sapiens, MCF7, 72 h, 72 hours incubation, read-out: GI50 MCF
Procedure, shortened: as §1

[14] = tested on: MDA-MB-231 (breast cancer cells); experiment: MTT cancer cell growth inhibition; assay type: cell-based; conditions: Homo sapiens, MDA-MB-231, 72 h, read-out: GI50 MDA-MB-231, MTT, 72 hours incubation, MDA-MB-231 cells
Procedure, shortened: as §1

[15] = tested on: MOLT-4 (human acute lymphoblastic leukemia cells); experiment: MTT cancer cell growth inhibition; assay type: cell-based; conditions: Homo sapiens, MOLT-4, 72 h, MTT, 72 hours incubation, read-out: GI50 Mol
Procedure, shortened: as §1

[16] = tested on: N-87 (human gastric cancer cells); experiment: MTT cancer cell growth inhibition; assay type: cell-based; conditions: Homo sapiens, 72 h, MTT, 72 hours incubation, N-87 cells; read-out: GI50 N-87
Procedure, shortened: as §1

[17] = tested on: PANC-1 (Pac-1, human pancreatic cancer cells); experiment: MTT cancer cell growth inhibition; assay type: cell-based; conditions: Homo sapiens, PANC-1, 72 h, MTT, 72 hours incubation, read-out: GI50 PAN
Procedure, shortened: as §1

[18] = tested on: SGC-7901 (human gastric cancer cells); experiment: MTT cancer cell growth inhibition; assay type: cell-based; conditions: Homo sapiens, SGC-7901, 72 h, MTT, 72 hours incubation, SGC-7901 cells; read-out: GI50 SGC-7901
Procedure, shortened: as §1

[19] = tested on: U937 (human leukemia cells); experiment: MTT cancer cell growth inhibition; assay type: cell-based; conditions: Homo sapiens, U-937, 72 h, MTT, 72 hours incubation, read-out: GI50 U93
Procedure, shortened: as §1

[20] = tested on: lncap (prostate cancer cells); experiment: MTT cancer cell growth inhibition; assay type: cell-based; conditions: Homo sapiens, LNCaP, 72 h, MTT, 72 hours incubation, read-out: GI50 lnca
Procedure, shortened: as §1

| Compound | IC50 HDAC7 (HDAC7) | GI50 [1] | GI50 [2] | GI50 [3] | GI50 [4] | GI50 [5] | GI50 [6] | GI50 [7] | GI50 [8] | GI50 [9] | GI50 [10] | GI50 [11] | GI50 [12] | GI50 [13] | GI50 [14] | GI50 [15] | GI50 [16] | GI50 [17] | GI50 [18] | GI50 [19] | also measured |
| --- | --- | --- | --- | --- | --- | --- | --- | --- | --- | --- | --- | --- | --- | --- | --- | --- | --- | --- | --- | --- | --- |
| C/C=C1\NC(=O)c2ncc(F)c(n2)CNC(=O)C[C@@H](/C=C/CCSC(C)=O)OC(=O)[C@H](C)NC1=O [Compound 99] | no activity | 0.06 µM | 0.06 µM | 0.016 µM | 0.04 µM | 0.058 µM | 0.088 µM | 0.07 µM | 0.06 µM | 0.031 µM | 0.042 µM | 0.019 µM | 0.022 µM | 0.01 µM | 0.024 µM | 0.02 µM | 0.031 µM | 0.07 µM | 0.069 µM | 0.06 µM | GI50 [20]: 0.02 µM |
| C/C=C1\NC(=O)c2cccc(n2)CNC(=O)C[C@@H](/C=C/CCS)OC(=O)[C@H](C)NC1=O [Example 29] | no activity | 0.27 µM | 0.09 µM | 0.091 µM | 0.07 µM | 0.063 µM | 0.029 µM | 0.06 µM | 0.91 µM | 0.077 µM | 0.034 µM | 0.043 µM | 0.037 µM | 1.21 µM | 0.087 µM | 0.07 µM | 0.033 µM | 0.08 µM | 0.029 µM | 0.45 µM | GI50 [20]: 0.05 µM |
| C/C=C1\NC(=O)c2cc(SC)cc(n2)CNC(=O)C[C@@H](/C=C/CCSC(=O)CCCCCCC)OC(=O)[C@H](CC)NC1=O [Compound 172] | no activity | – | – | 0.073 µM | – | 0.045 µM | 0.032 µM | – | – | 0.023 µM | 0.026 µM | 0.035 µM | 0.041 µM | – | 0.078 µM | – | 0.084 µM | – | 0.031 µM | – | GI50 ([1]; A549 cells): 0.03 µM; GI50 ([2]; BGC-823 cells): 0.06 µM; GI50 ([4]; DU145 cells): 0.04 µM; GI50 ([7]; HT1080 cells): 0.06 µM; GI50 ([8]; Hela cells): 0.05 µM; GI50 ([13]; MCF-7 cells): 0.06 µM; GI50 ([15]; MOLT-4 cells): 0.02 µM; GI50 ([17]; PANC-1 cells): 0.08 µM; GI50 ([19]; U937 cells): 0.04 µM; GI50 ([20]; lncap cells): 0.02 µM |
| C/C=C1\NC(=O)c2ccc(SC)c(n2)CNC(=O)C[C@@H](/C=C/CCSC(C)=O)OC(=O)[C@H](CCCCN)NC1=O [Compound 194] | no activity | – | – | 0.027 µM | – | 0.023 µM | 0.035 µM | – | – | 0.084 µM | 0.029 µM | 0.051 µM | 0.025 µM | – | 0.027 µM | – | 0.036 µM | – | 0.043 µM | – | GI50 ([1]; A549 cells): 0.03 µM; GI50 ([2]; BGC-823 cells): 0.05 µM; GI50 ([4]; DU145 cells): 0.03 µM; GI50 ([7]; HT1080 cells): 0.01 µM; GI50 ([8]; Hela cells): 0.05 µM; GI50 ([13]; MCF-7 cells): 0.04 µM; GI50 ([15]; MOLT-4 cells): 0.03 µM; GI50 ([17]; PANC-1 cells): 0.04 µM; GI50 ([19]; U937 cells): 0.06 µM; GI50 ([20]; lncap cells): 0.02 µM |
| C/C=C1\NC(=O)c2ccc(C)c(n2)CNC(=O)C[C@@H](/C=C/CCSC(C)=O)OC(=O)[C@H](Cc2ccccc2)NC1=O [Example 68] | no activity | 0.02 µM | 0.04 µM | 0.083 µM | 0.02 µM | 0.035 µM | 0.083 µM | 0.08 µM | 0.05 µM | 0.022 µM | 0.026 µM | 0.051 µM | 0.034 µM | 0.03 µM | 0.022 µM | 0.02 µM | 0.043 µM | 0.08 µM | 0.029 µM | 0.03 µM | GI50 [20]: 0.02 µM |
| C/C=C1\NC(=O)c2cc(F)cc(n2)CNC(=O)C[C@@H](/C=C/CCSC(=O)CCCCCCC)OC(=O)[C@H](C(C)C)NC1=O [Example 31] | no activity | 0.07 µM | 0.05 µM | 0.057 µM | 0.02 µM | 0.042 µM | 0.057 µM | 0.05 µM | 0.09 µM | 0.019 µM | 0.027 µM | 0.092 µM | 0.063 µM | 0.06 µM | 0.019 µM | 0.01 µM | 0.052 µM | 0.05 µM | 0.077 µM | 0.04 µM | GI50 [20]: 0.01 µM |
| C/C=C1\NC(=O)c2nc(ccc2F)CNC(=O)C[C@@H](/C=C/CCSC(=O)CCCC)OC(=O)[C@H](C(C)C)NC1=O [Example 39] | no activity | 0.04 µM | 0.05 µM | 0.083 µM | 0.02 µM | 0.035 µM | 0.083 µM | 0.08 µM | 0.07 µM | 0.022 µM | 0.026 µM | 0.072 µM | 0.067 µM | 0.06 µM | 0.022 µM | 0.02 µM | 0.05 µM | 0.08 µM | 0.041 µM | 0.03 µM | GI50 [20]: 0.02 µM |
